Data taken from ChEMBL document CHEMBL4043214, “Design, synthesis, and SAR study of 3-(benzo[d][1,3]dioxol-5-yl)-N-benzylpropanamide as novel potent synergists against fluconazole-resistant Candida albicans” (2017).
≈ marks a conversion by molar mass, not a printed value.

Tests used:
Assay type in all cases: functional
Candida albicans [1] = test: Anti-fungal activity against fluconazole-resistant Candida albicans isolate 100 by microbroth dilution method
Candida albicans [2] = test: Anti-fungal activity against fluconazole-resistant Candida albicans isolate 103 by microbroth dilution method
Candida albicans [3] = test: Synergistic anti-fungal activity against fluconazole-resistant Candida albicans isolate 100 in presence of fluconazole by two-fold dilution method
Candida albicans [4] = test: Synergistic anti-fungal activity against fluconazole-resistant Candida albicans isolate 103 in presence of fluconazole by two-fold dilution method
Candida albicans [5] = test: Potentiation of fluconazole-induced anti-fungal activity against fluconazole-resistant Candida albicans isolate 103 by two-fold dilution method
Candida albicans [6] = test: Potentiation of fluconazole-induced anti-fungal activity against fluconazole-resistant Candida albicans isolate 100 by two-fold dilution method
Candida albicans [7] = test: Potentiation of fluconazole-induced anti-fungal activity against fluconazole-resistant Candida albicans isolate 103 assessed as fluconazole MIC80 at 4 ug/ml by checkerboard microdilution assay
Candida albicans [8] = test: Potentiation of fluconazole-induced anti-fungal activity against fluconazole-resistant Candida albicans isolate 103 assessed as fluconazole MIC80 at 8 ug/ml by checkerboard microdilution assay
Candida albicans [9] = test: Potentiation of fluconazole-induced anti-fungal activity against fluconazole-resistant Candida albicans isolate 103 assessed as fluconazole MIC80 at 2 ug/ml by checkerboard microdilution assay
Candida albicans [10] = test: Potentiation of fluconazole-induced anti-fungal activity against fluconazole-resistant Candida albicans isolate 103 assessed as fluconazole MIC80 at 1 ug/ml by checkerboard microdilution assay
Candida albicans [11] = test: Potentiation of fluconazole-induced anti-fungal activity against fluconazole-resistant Candida albicans isolate 100 assessed as fluconazole MIC80 at 8 ug/ml by checkerboard microdilution assay
Candida albicans [12] = test: Potentiation of fluconazole-induced anti-fungal activity against fluconazole-resistant Candida albicans isolate 100 assessed as fluconazole MIC80 at 4 ug/ml by checkerboard microdilution assay
Candida albicans [13] = test: Potentiation of fluconazole-induced anti-fungal activity against fluconazole-resistant Candida albicans isolate 100 assessed as fluconazole MIC80 at 2 ug/ml by checkerboard microdilution assay
Candida albicans [14] = test: Potentiation of fluconazole-induced anti-fungal activity against fluconazole-resistant Candida albicans isolate 100 assessed as fluconazole MIC80 at 1 ug/ml by checkerboard microdilution assay
Candida albicans [15] = test: Potentiation of fluconazole-induced anti-fungal activity against fluconazole-resistant Candida albicans isolate 103 at 8 ug/ml by checkerboard microdilution assay
Candida albicans [16] = test: Potentiation of fluconazole-induced anti-fungal activity against fluconazole-resistant Candida albicans isolate 103 at 4 ug/ml by checkerboard microdilution assay
Candida albicans [17] = test: Potentiation of fluconazole-induced anti-fungal activity against fluconazole-resistant Candida albicans isolate 103 at 2 ug/ml by checkerboard microdilution assay
Candida albicans [18] = test: Potentiation of fluconazole-induced anti-fungal activity against fluconazole-resistant Candida albicans isolate 103 at 1 ug/ml by checkerboard microdilution assay
Candida albicans [19] = test: Potentiation of fluconazole-induced anti-fungal activity against fluconazole-resistant Candida albicans isolate 100 at 8 ug/ml by checkerboard microdilution assay
Candida albicans [20] = test: Potentiation of fluconazole-induced anti-fungal activity against fluconazole-resistant Candida albicans isolate 100 at 4 ug/ml by checkerboard microdilution assay
Candida albicans [21] = test: Potentiation of fluconazole-induced anti-fungal activity against fluconazole-resistant Candida albicans isolate 100 at 2 ug/ml by checkerboard microdilution assay
Candida albicans [22] = test: Potentiation of fluconazole-induced anti-fungal activity against fluconazole-resistant Candida albicans isolate 100 at 1 ug/ml by checkerboard microdilution assay

| SMILES | MIC80 (Candida albicans [1]) [µg/mL] | MIC80 (Candida albicans [2]) [µg/mL] | MIC80 (Candida albicans [3]) [µg/mL] | MIC80 (Candida albicans [4]) [µg/mL] | fractional inhibitory concentration index (FICI) (Candida albicans [5]) | fractional inhibitory concentration index (FICI) (Candida albicans [6]) | also measured |
| --- | --- | --- | --- | --- | --- | --- | --- |
| O=C(CCc1ccc2c(c1)OCO2)NCc1ccc(-c2ccc(Cl)cc2)cc1 | > 64 | > 64 | 0.5 | 0.5 | 0.066 | 0.066 |  |
| O=C(CCc1ccc2c(c1)OCO2)NCc1ccc(-c2ccco2)cc1 | > 64 | > 64 | 2 | 4 | 0.094 | 0.078 |  |
| O=C(CCc1ccc2c(c1)OCO2)NCc1cccc(Br)c1 | > 64 | > 64 | 2 | 2 | 0.078 | 0.078 |  |
| O=C(CCc1ccc2c(c1)OCO2)NCc1ccc(-c2ccccc2F)cc1 | > 64 | > 64 | 0.031 | 0.031 | 0.063 | 0.063 | MIC80 (Candida albicans [7]): 0.063 µg/mL; MIC80 (Candida albicans [8]): 0.031 µg/mL; MIC80 (Candida albicans [9]): 0.125 µg/mL; MIC80 (Candida albicans [10]): 0.25 µg/mL; MIC80 (Candida albicans [11]): 0.031 µg/mL; MIC80 (Candida albicans [12]): 0.63 µg/mL; MIC80 (Candida albicans [13]): 0.125 µg/mL; MIC80 (Candida albicans [14]): 0.125 µg/mL; fractional inhibitory concentration index (FICI) (Candida albicans [15]): 0.066; fractional inhibitory concentration index (FICI) (Candida albicans [16]): 0.032; fractional inhibitory concentration index (FICI) (Candida albicans [17]): 0.017; fractional inhibitory concentration index (FICI) (Candida albicans [18]): 0.01; fractional inhibitory concentration index (FICI) (Candida albicans [19]): 0.066; fractional inhibitory concentration index (FICI) (Candida albicans [20]): 0.032; fractional inhibitory concentration index (FICI) (Candida albicans [21]): 0.017; fractional inhibitory concentration index (FICI) (Candida albicans [22]): 0.009 |
| O=C(CCc1ccc2c(c1)OCO2)NCc1ccc(-c2ccsc2)cc1 | > 64 | > 64 | 0.25 | 0.25 | 0.064 | 0.064 |  |
| Cc1ccc(-c2ccccc2CNC(=O)CCc2ccc3c(c2)OCO3)cc1 | > 64 | > 64 | 0.25 | 0.25 | 0.064 | 0.064 |  |
| O=C(CCc1ccc2c(c1)OCO2)NCc1cccc(F)c1 | > 64 | > 64 | 1 | 1 | 0.07 | 0.07 |  |
| O=C(CCc1ccc2c(c1)OCO2)NCc1ccc(-c2ccc(F)cc2)cc1 | > 64 | > 64 | 0.031 | 0.063 | 0.063 | 0.063 | MIC80 (Candida albicans [7]): 0.125 µg/mL; MIC80 (Candida albicans [8]): 0.063 µg/mL; MIC80 (Candida albicans [9]): 0.25 µg/mL; MIC80 (Candida albicans [10]): 0.25 µg/mL; MIC80 (Candida albicans [11]): 0.031 µg/mL; MIC80 (Candida albicans [12]): 0.063 µg/mL; MIC80 (Candida albicans [13]): 0.125 µg/mL; MIC80 (Candida albicans [14]): 0.25 µg/mL; fractional inhibitory concentration index (FICI) (Candida albicans [15]): 0.064; fractional inhibitory concentration index (FICI) (Candida albicans [16]): 0.032; fractional inhibitory concentration index (FICI) (Candida albicans [17]): 0.018; fractional inhibitory concentration index (FICI) (Candida albicans [18]): 0.01; fractional inhibitory concentration index (FICI) (Candida albicans [19]): 0.064; fractional inhibitory concentration index (FICI) (Candida albicans [20]): 0.032; fractional inhibitory concentration index (FICI) (Candida albicans [21]): 0.017; fractional inhibitory concentration index (FICI) (Candida albicans [22]): 0.01 |
| O=C(CCc1ccc2c(c1)OCO2)NCc1ccc(-c2ccc(C(F)(F)F)cc2)cc1 | > 64 | > 64 | 4 | 4 | 0.094 | 0.094 |  |
| Cc1ccc(-c2cccc(CNC(=O)CCc3ccc4c(c3)OCO4)c2)cc1 | > 64 | > 64 | 1 | 2 | 0.078 | 0.07 |  |
| O=C(CCc1ccc2c(c1)OCO2)NCc1ccccc1Br | > 64 | > 64 | 1 | 1 | 0.07 | 0.07 |  |
| O=C(CCc1ccc2c(c1)OCO2)NCc1ccc(-c2ccncc2)cc1 | > 64 | > 64 | 8 | 8 | 0.125 | 0.125 |  |
| OC(Cn1cncn1)(Cn1cncn1)c1ccc(F)cc1F [FLUCONAZOLE] | 128 (≈ 418 µM) | 128 (≈ 418 µM) |  |  |  |  |  |
